The subject of series [1] is tubercule bacillus. Particulars: reported in literature; cited from earlier work.
A short description of series [2]: Solubility of cantharidic anhydride in water, fat and essential oil. The series is classed as physicochemical. As to the method:
In the pharmaceutical composition of the present invention, cantharidic anhydride is dissolved in essential oils or single constituent of essential oils to form cantharidic anhydride-essential oil preparation. The cantharidic anhydride has higher solubility in essential oil. […] That is to say, concentration of cantharidic anhydride in essential oil can be 14 times larger than that in fat and more than 200 time larger than that in water.

For series [3], the system named is tubercule bacillus. The series is classed as cell-based.
A further series concerns staphylococcus. The series is classed as cell-based.
A further series has as its system virus. Nature of the series: Minimum concentration for virus deactivation. The series is classed as cell-based.
The conditions of series [4]: human, in vivo.

Each structure is given as a SMILES string.

Turning to `[H]/N=C(/N)N[C@H]1[C@H](O)[C@@H](O)[C@H](O[C@@H]2O[C@@H](C)[C@](O)(C=O)[C@H]2O[C@@H]2O[C@@H](CO)[C@H](O)[C@@H](O)[C@@H]2NC)[C@@H](N/C(N)=N\[H])[C@@H]1O` [streptomycin], the “minimum concentration for tubercule bacillus deactivation” value with tubercule bacillus [1] is 10 ppm.
Regarding `C[C@@]12C(=O)OC(=O)[C@]1(C)[C@H]1CC[C@@H]2O1` [cantharidic anhydride, Cantharidic anhydride], the “concentration of cantharidic anhydride in essential oil relative to that in fat” value in series [2] (essential oil vs fat) was determined as 14 times. For the same compound, the “concentration of cantharidic anhydride in essential oil relative to that in water” value in series [2] (essential oil vs water) is listed as “more than 200 time”. Moreover, the “solubility in essential oil” value in series [2] (in essential oil) was no more than 0.7%. This compound also came in with a solubility in fat in series [2] (in fat) of 0.05%. Further, the “solubility of cantharidic anhydride in water” value in series [2] (in water) is given as “approximately 0.003%”. Further, the “concentration in culture medium that can completely deactivate tubercule bacillus” value with tubercule bacillus [3] was found to be 0.01 ppm. The “concentration in culture medium that can completely deactivate staphylococcus” value in the series on staphylococcus was 0.01 ppm. Also, in the series with virus, the “minimum concentration for virus deactivation” value is recorded as 0.000132 ppm. The “adverse reaction to liver and bone marrow” value in series [4] is “does not have adverse reaction to liver and bone marrow”.

(Values after patent US8003691B2, “Antiviral and comma antibacterial pharmaceutical compositions of cantharidic anhydride and method of preparation thereof” (priority 2001, dated 2011).)
